In patent publication US9073903B2, “Imidazole-2,4-dione inhibitors of casein kinase 1” (Jasco Pharmaceuticals, LLC, priority 2010, dated 2015):
pIC50: −log10 of the molar value. Like-named read-outs stand apart in the source and are kept apart here.

What was measured:
Assay type in all cases: cell-based
Ovcar-3 cells = assay: Inhibition of Ovcar 3 cells (MTS cell proliferation); conditions: for OD value 1 / OD value 2: 490 nm; for OD value 1 / OD value 2 / inhibition at 0.4 µM / inhibition at 0.8 µM / inhibition at 1.6 µM / inhibition at 3.2 µM / inhibition at 6.25 µM / inhibition at 12.5 µM / inhibition at 25 µM / inhibition at 50 µM / inhibition at 100 µM: 72 h; for inhibition at 0.4 µM / inhibition at 0.8 µM / inhibition at 1.6 µM / inhibition at 3.2 µM / inhibition at 6.25 µM / inhibition at 12.5 µM / inhibition at 25 µM / inhibition at 50 µM / inhibition at 100 µM / pIC50: Homo sapiens, OVCAR-3
Procedure: Inhibition of Ovcar 3 Cells Cells: Ovcar-3 cells, ATCC Passage 4, Mycoplasma free. Medium: RPMI-1640 Medium (GIBCO Cat #22400121) supplemented with 10% fetal bovine serum (Hyclone Cat #SH30396.03). Seeding: 3,000 cells/well (100 uL) were seeded into 96-wells plate, incubated overnight at 37° C. in a humidified, 5% CO2 atmosphere. Treatment: Test compounds and Gemcitabine were prepared in a serial dilution (1:2) by culture medium. Fifty microliters (50 uL) of serially diluted solutions were added into each well. The final concentrations of the positive control and test compounds were shown in the graphs. The cells were incubated for 72 hours after addition of the test compounds. MTS: 15 uL of MTS solution (Promega Cat #G5430) was added into each well and incubated with cells for 4 hours at 37° C. in a humidified, 5% CO2 atmosphere. Measurement: Absorbance at 490 nm was measured using MD Spectramax Plus384 spectrophotometer. The regression curves were calculated by the GraphPad Prism 5 using “log(inhibitor) vs response—variable slope”.

LNCaP = assay: Inhibition of LNCaP cells (MTS cell proliferation); conditions: for OD value 1 / OD value 2: 490 nm; for OD value 1 / OD value 2 / inhibition at 0.4 µM / inhibition at 0.8 µM / inhibition at 1.6 µM / inhibition at 3.2 µM / inhibition at 6.25 µM / inhibition at 12.5 µM / inhibition at 25 µM / inhibition at 50 µM / inhibition at 100 µM: 72 h; for inhibition at 0.4 µM / inhibition at 0.8 µM / inhibition at 1.6 µM / inhibition at 3.2 µM / inhibition at 6.25 µM / inhibition at 12.5 µM / inhibition at 25 µM / inhibition at 50 µM / inhibition at 100 µM / pIC50: Homo sapiens
Procedure: Inhibition of LNCaP Cells Cells: LNCaP, ATCC Passage unknown, Mycoplasma free. Medium: RPMI-1640 Medium (GIBCO Cat #22400121) supplemented with 10% fetal bovine serum (Hyclone Cat #SH30396.03). Seeding: 3,000 cells/well (100 uL) into 96-wells plate, incubated overnight at 37° C. in a humidified, 5% CO2 atmosphere. Treatment: Test compounds and Gemcitabine were prepared in a serial dilution (1:2) by culture medium. Fifty microliters (50 uL) of serially diluted solutions were added into each well. The final concentrations of the positive control and test compounds were shown in the graphs. The cells were incubated for 72 hours after addition of the test compounds. MTS: 15 uL of MTS solution (Promega Cat #G5430) was added into each well and incubated with cells for 4 hours at 37° C. in a humidified, 5% CO2 atmosphere. Measurement: Absorbance at 490 nm was measured using MD Spectramax Plus384 spectrophotometer. The regression curves were calculated by the GraphPad Prism 5 using “log(inhibitor) vs response—variable slope”. Calculation: % of inhibition+(AVE zero ctrl−AVE compound)/AVE zero ctrl*100.

Jurkat = assay: Cell proliferation study Jurkat

pIC50 (Ovcar-3 cells; Table 18, read-out: OVCAR-3* 50% inhibition concentration): 4.95
pIC50 (Ovcar-3 cells; Table 26, Ovcar3, 72 hours, read-out: 50% viability conc.): 4.95
pIC50 (Ovcar-3 cells; Table 26, Ovcar3, 72 hours, read-out: IC50): 5.01
pIC50 (LNCaP; LNCaP, Table 18, read-out: LNCaP* 50% inhibition concentration): 5.71
pIC50 (LNCaP; Table 26, LNCaP, 72 hours, read-out: 50% viability conc.): 5.71
pIC50 (LNCaP; Table 26, LNCaP, 72 hours, read-out: IC50): 5.62
SMILES: Nc1ccn([C@@H]2O[C@H](CO)[C@@H](O)C2(F)F)c(=O)n1 [Gemcitabine]
OD value 1 (Ovcar-3 cells; 0.400 μM, replicate 1): 0.591
OD value 2 (Ovcar-3 cells; 0.400 μM, replicate 2): 0.575
OD value 1 (Ovcar-3 cells; 0.800 μM, replicate 1): 0.490
OD value 2 (Ovcar-3 cells; 0.800 μM, replicate 2): 0.460
OD value 1 (Ovcar-3 cells; 1.600 μM, replicate 1): 0.440
OD value 2 (Ovcar-3 cells; 1.600 μM, replicate 2): 0.453
OD value 1 (Ovcar-3 cells; 3.200 μM, replicate 1): 0.411
OD value 2 (Ovcar-3 cells; 3.200 μM, replicate 2): 0.432
OD value 1 (Ovcar-3 cells; 6.250 μM, replicate 1): 0.363
OD value 2 (Ovcar-3 cells; 6.250 μM, replicate 2): 0.388
OD value 1 (Ovcar-3 cells; 12.500 μM, replicate 1): 0.257
OD value 2 (Ovcar-3 cells; 12.500 μM, replicate 2): 0.234
OD value 1 (Ovcar-3 cells; 25.000 μM, replicate 1): 0.040
OD value 2 (Ovcar-3 cells; 25.000 μM, replicate 2): 0.009
OD value 1 (Ovcar-3 cells; 50.000 μM, replicate 1): 0.020
OD value 2 (Ovcar-3 cells; 50.000 μM, replicate 2): 0.010
OD value 1 (Ovcar-3 cells; 100.000 μM, replicate 1): 0.012
OD value 2 (Ovcar-3 cells; 100.000 μM, replicate 2): 0.011
inhibition at 0.4 µM (Ovcar-3 cells; 0.400 μM, replicate 1, read-out: % of inhibition 1): 1.5%
inhibition at 0.4 µM (Ovcar-3 cells; 0.400 μM, replicate 2, read-out: % of inhibition 2): -4.93%
inhibition at 0.8 µM (Ovcar-3 cells; 0.800 μM, replicate 1, read-out: % of inhibition 1): 18.3%
inhibition at 0.8 µM (Ovcar-3 cells; 0.800 μM, replicate 2, read-out: % of inhibition 2): 16.1%
inhibition at 1.6 µM (Ovcar-3 cells; 1.600 μM, replicate 1, read-out: % of inhibition 1): 26.6%
inhibition at 1.6 µM (Ovcar-3 cells; 1.600 μM, replicate 2, read-out: % of inhibition 2): 17.4%
inhibition at 3.2 µM (Ovcar-3 cells; 3.200 μM, replicate 1, read-out: % of inhibition 1): 31.5%
inhibition at 3.2 µM (Ovcar-3 cells; 3.200 μM, replicate 2, read-out: % of inhibition 2): 21.2%
inhibition at 6.25 µM (Ovcar-3 cells; 6.250 μM, replicate 1, read-out: % of inhibition 1): 39.5%
inhibition at 6.25 µM (Ovcar-3 cells; 6.250 μM, replicate 2, read-out: % of inhibition 2): 29.2%
inhibition at 12.5 µM (Ovcar-3 cells; 12.500 μM, replicate 1, read-out: % of inhibition 1): 57.2%
inhibition at 12.5 µM (Ovcar-3 cells; 12.500 μM, replicate 2, read-out: % of inhibition 2): 57.3%
inhibition at 25 µM (Ovcar-3 cells; 25.000 μM, replicate 1, read-out: % of inhibition 1): 93.4%
inhibition at 25 µM (Ovcar-3 cells; 25.000 μM, replicate 2, read-out: % of inhibition 2): 98.4%
inhibition at 50 µM (Ovcar-3 cells; 50.000 μM, replicate 1, read-out: % of inhibition 1): 96.7%
inhibition at 50 µM (Ovcar-3 cells; 50.000 μM, replicate 2, read-out: % of inhibition 2): 98.1%
inhibition at 100 µM (Ovcar-3 cells; 100.000 μM, replicate 1, read-out: % of inhibition 1): 98%
inhibition at 100 µM (Ovcar-3 cells; 100.000 μM, replicate 2, read-out: % of inhibition 2): 98%
Maximal inhibition % (Ovcar-3 cells; Table 26, Ovcar3, 72 hours): 98%
OD value 1 (LNCaP; 0.400 uM, replicate 1): 0.578
OD value 2 (LNCaP; 0.400 uM, replicate 2): 0.662
OD value 1 (LNCaP; 0.800 uM, replicate 1): 0.459
OD value 2 (LNCaP; 0.800 uM, replicate 2): 0.434
OD value 1 (LNCaP; 1.600 uM, replicate 1): 0.448
OD value 2 (LNCaP; 1.600 uM, replicate 2): 0.472
OD value 1 (LNCaP; 3.200 uM, replicate 1): 0.322
OD value 2 (LNCaP; 3.200 uM, replicate 2): 0.337
OD value 1 (LNCaP; 6.250 uM, replicate 1): 0.182
OD value 2 (LNCaP; 6.250 uM, replicate 2): 0.190
OD value 1 (LNCaP; 12.500 uM, replicate 1): 0.166
OD value 2 (LNCaP; 12.500 uM, replicate 2): 0.173
OD value 1 (LNCaP; 25.000 uM, replicate 1): 0.101
OD value 2 (LNCaP; 25.000 uM, replicate 2): 0.177
OD value 1 (LNCaP; 50.000 uM, replicate 1): 0.124
OD value 2 (LNCaP; 50.000 uM, replicate 2): 0.202
OD value 1 (LNCaP; 100.000 uM, replicate 1): 0.112
OD value 2 (LNCaP; 100.000 uM, replicate 2): 0.197
inhibition at 0.4 µM (LNCaP; LNCaP, 0.400 uM, replicate 1, read-out: % of inhibition 1): 12.8%
inhibition at 0.4 µM (LNCaP; LNCaP, 0.400 uM, replicate 2, read-out: % of inhibition 2): 13.6%
inhibition at 0.8 µM (LNCaP; LNCaP, 0.800 uM, replicate 1, read-out: % of inhibition 1): 30.8%
inhibition at 0.8 µM (LNCaP; LNCaP, 0.800 uM, replicate 2, read-out: % of inhibition 2): 43.4%
inhibition at 1.6 µM (LNCaP; LNCaP, 1.600 uM, replicate 1, read-out: % of inhibition 1): 32.4%
inhibition at 1.6 µM (LNCaP; LNCaP, 1.600 uM, replicate 2, read-out: % of inhibition 2): 38.4%
inhibition at 3.2 µM (LNCaP; LNCaP, 3.200 uM, replicate 1, read-out: % of inhibition 1): 51.4%
inhibition at 3.2 µM (LNCaP; LNCaP, 3.200 uM, replicate 2, read-out: % of inhibition 2): 56%
inhibition at 6.25 µM (LNCaP; LNCaP, 6.250 uM, replicate 1, read-out: % of inhibition 1): 72.5%
inhibition at 6.25 µM (LNCaP; LNCaP, 6.250 uM, replicate 2, read-out: % of inhibition 2): 75.2%
inhibition at 12.5 µM (LNCaP; LNCaP, 12.500 uM, replicate 1, read-out: % of inhibition 1): 75%
inhibition at 12.5 µM (LNCaP; LNCaP, 12.500 uM, replicate 2, read-out: % of inhibition 2): 77.4%
inhibition at 25 µM (LNCaP; LNCaP, 25.000 uM, replicate 1, read-out: % of inhibition 1): 84.8%
inhibition at 25 µM (LNCaP; LNCaP, 25.000 uM, replicate 2, read-out: % of inhibition 2): 76.9%
inhibition at 50 µM (LNCaP; LNCaP, 50.000 uM, replicate 1, read-out: % of inhibition 1): 81.3%
inhibition at 50 µM (LNCaP; LNCaP, 50.000 uM, replicate 2, read-out: % of inhibition 2): 73.6%
inhibition at 100 µM (LNCaP; LNCaP, 100.000 uM, replicate 1, read-out: % of inhibition 1): 83.1%
inhibition at 100 µM (LNCaP; LNCaP, 100.000 uM, replicate 2, read-out: % of inhibition 2): 74.3%
Maximal inhibition % (LNCaP; Table 26, LNCaP, 72 hours): 78.69%
Jurkat‡ % at 10 μM (Jurkat): 3.2%
